{"source": "paper PMC5556071", "about": "“ATR inhibition facilitates targeting of leukemia dependence on convergent nucleotide biosynthetic pathways” (Nature Communications, 2017)", "key": {"[1]": {"system": "p185BCR-ABL Arf–/– cells", "assay": "Proliferation assay (CellTiter-Glo, 72 h)", "type": "cell-based", "settings": "Mus musculus", "procedure": "Cells were plated in 384-well plates (1000 cells/well for suspension cell lines and 500 cells/well for adherent cell lines in 30 µl volume). Drugs were serially diluted to the desired concentrations and an equivalent volume of DMSO was added to vehicle control. Ten microliter of the 4× diluted drugs were added to each well. Following 72 h incubation, ATP content was measured using CellTiter-Glo reagent according to manufacturer’s instructions (Promega, CellTiter-Glo Luminescent Cell Viability Assay), and analyzed by SpectraMax luminometer (Molecular Devices). IC50 values, concentrations required to inhibit proliferation by 50% compared to DMSO treated cells, were calculated using Prism 6.0 h (Graphpad Software)."}, "[2]": {"system": "dCK pS74", "assay": "Phosphoproteomic nLC-MS/MS analysis of dCK phosphorylation", "type": "cell-based, human", "set-up": "key to dCK pS74: ↓: partial decrease/inhibition; ↓↓↓: nearly complete inhibition; ↑: increase; ⟷: no change", "procedure": "(§1) against both the Uniprot human FASTA database and a decoy database of the Uniprot human database which read from C-terminus to N-terminus; Percolator was used to filter the data at 1% FDR at both the peptide and […]\n(§2) Phosphoproteomic analyses. CCRF-CEM cells were prepared same as the asynchronous CEM cells total protein digests above, except that a total of 7.5 mg total protein from 1 x 10^8 cells was collected per treatment condition for phosphoproteomic analysis. tC18 Sep-Pak cartridges (Waters) were used for peptide desalting and Pierce Quantitative Colorimetric Peptide Assay was performed prior to phosphopeptide enrichment.\nHydrophilic interaction chromatography (HILIC) and immobilized metal affinity chromatography (IMAC) were performed same as previously described4. Data dependent nLC-MS/MS was performed on Thermo QExactive Plus same as above. […] Identified phosphopeptides were manually quantified by area-based extracted ion chromatograms of the monoisotopic peak. […]"}, "[3]": {"system": "RRM2 pT33", "assay": "Phosphoproteomic nLC-MS/MS analysis of RRM2 phosphorylation", "type": "cell-based, human", "set-up": "key to RNR pT33: ↓: partial decrease/inhibition; ↓↓↓: nearly complete inhibition; ↑: increase; ⟷: no change", "procedure": "as §1, §2\nHydrophilic interaction chromatography (HILIC) and immobilized metal affinity chromatography (IMAC) were performed same as previously described4. Data dependent nLC-MS/MS was performed on Thermo QExactive Plus same as above. Raw data was searched against Uniprot human database using MaxQuant 1.5.3.30 with the following search parameters: trypsin cleavage allowing up to 2 missed cleavages, fixed modification of carbamidomethyl to cysteines, variable modifications of acetylation to protein N-terminus, methionine oxidation, and phosphorylation to serine, threonine, and tyrosine, 10 ppm and 20 mmu mass errors for full MS and MS/MS, respectively, score of 40 or greater for modified peptides, and 1% false-discovery rate on peptide and protein identifications. Identified phosphopeptides were manually quantified by area-based extracted ion chromatograms of the monoisotopic peak. […]\nPlasma samples were processed the same way as the calibration standard samples. 20 μL samples were injected onto a reverse phase column, (Thermo Scientific Hypersil GOLD column 3.0 µm; 2.1 x 100 mm) equilibrated in water/formic acid, 100/0.1, and eluted (200 μL/min) with an increasing concentration of solvent […]\nThe effluent from the column was directed to the Agilent Jet Stream ion source connected to the triple quadrupole mass spectrometer (Agilent 6460) operating in the multiple reaction monitoring (MRM) mode using previously optimized settings. The following drug precursor→fragment ion transitions were used: 3-AP"}, "[4]": {"system": "Jurkat cells", "assay": "Cell cycle histograms (propidium iodide flow cytometry)", "type": "cell-based, human", "settings": "dCKi 1 µM, 24 h", "procedure": "Cell cycle histograms. Cells were plated at a density of 0.5 x 10^6 cells/mL in respective media or drug treated\nmedia. Following 24 h incubation, cells were harvested and washed twice with PBS twice before staining with\n0.5 ml of propidium iodide (Calbiochem, #P3566, 1 µg/mL) solution containing Ribonuclease A and 0.3%\nTriton-X 100. The samples were protected from light before acquisition by flow cytometry. […]"}, "[5]": {"settings": "asynchronous CEM, VE-822 1 µM, 12 h"}, "[6]": {"settings": "Suppl. Fig. 5e, BCX-1777 100 nM"}}, "data": [{"smiles": "CNCc1ccc(-c2cc(-c3nc(-c4ccc(S(=O)(=O)C(C)C)cc4)cnc3N)on2)cc1", "note": "[VE-822]", "values": [{"measurement": "IC50", "setting": "[1]", "result": "~0.3", "unit": "µM"}, {"measurement": "decrease in dCK pS74 (fold)", "setting": "[2]; VE-822-treated leukemia cells", "result": "two-fold"}, {"measurement": "dCK pS74", "setting": "[2]; summary Fig. 2g, CEM cells", "result": "↓"}, {"measurement": "decrease in the phosphorylation of RRM2 on threonine 33 (pT33)", "setting": "[3]; [5]", "result": "~ 50%"}, {"measurement": "mean fold change of RRM2 pT33 normalized to total RRM2", "setting": "[3]; [5]", "result": "0.43 ± 0.1", "unit": "fold"}, {"measurement": "observed fold decrease for pT33 (phosphoproteomic nLC-MS/MS)", "setting": "[3]; [5]", "result": 0.34, "unit": "fold"}, {"measurement": "RNR pT33", "setting": "[3]; summary Fig. 2g, CEM cells", "result": "↓"}]}, {"smiles": "COc1ccc(-c2nc([C@@H](C)Sc3nc(N)cc(N)n3)c(C)s2)cc1OCCNS(C)(=O)=O", "note": "[dCKi]", "values": [{"measurement": "cells in G2/M", "setting": "[4]; Suppl. Fig. 4e, dCF 10 µM", "result": 17, "unit": "%"}, {"measurement": "cells in S phase", "setting": "[4]; Suppl. Fig. 4e, dCF 10 µM", "result": 30, "unit": "%"}, {"measurement": "cells in G2/M", "setting": "[4]; [6]", "result": 14, "unit": "%"}, {"measurement": "cells in S phase", "setting": "[4]; [6]", "result": 32, "unit": "%"}]}]}
